Test results taken from PMC10485820 (European Journal of Pharmaceutical Sciences, 2023).
≈ marks a conversion by molar mass, not a printed value.

How the values were obtained:
[1] = Apparent permeability in Caco-2 monolayer cell lines; assay type: in vitro ADME; details: human, Caco-2
Method: (§1) All experiments were performed in triplicate and analyzed by high-performance liquid chromatography with tandem mass spectrometry (HPLC-MS/MS). The apparent permeability coefficient (Papp) of each compound under the corresponding concentration was calculated according to Eq. (1) and listed as follows:(1) Papp=dQ/dt×1/A×C0 Where Papp was the apparent permeability coefficient (cm/s × 10^−6), dQ/dt (pmol/second) was the rate at which the compound appears in the receiver side, C0 (nM) was the initial concentration of the compound in the donor side, and A (cm^2) represented the surface area of the cell monolayer.

Caco-2 monolayer cells = test: as above; assay type: in vitro ADME; details: from Papp A→B at 1, 5, 20 μM
Method: as §1

[2] = HSK7653 PBPK model development and fitting (SimCYP); set-up: species or system human; details: Fitted (based on in vivo data)
From the text: The development of the DLM was complex.
In this manuscript, we constructed the ADAM absorption model using the dissolution profile method and DLM method, respectively. The same disposition model was severally coupled with these two different absorption models to capture the absorption and disposition characteristics of HSK7653 in vivo. Here, we collected the CLint_hep and CLR from in vitro experimental results and in vivo clinical trial data without further optimization. […] Therefore, the disposition model of HSK7653 could accurately capture the elimination characteristics of HSK7653 in vivo. […] Furthermore, the models were also validated with PK data from a multiple dose clinical study (CTR20191549). […] Accordingly, the mechanism driven HSK7653 PBPK model can be used to simulate untested scenarios in specific populations.

[3] = Bioavailability in rats (unpublished); details: rat, in vivo, oral
OATP1B1 = target: T1, OATP1B1 (Homo sapiens, UniProt Q9Y6L6); test: Preclinical transporter substrate assessment (unpublished); assay type: in vitro ADME
T1 sequence (Q9Y6L6 1-691): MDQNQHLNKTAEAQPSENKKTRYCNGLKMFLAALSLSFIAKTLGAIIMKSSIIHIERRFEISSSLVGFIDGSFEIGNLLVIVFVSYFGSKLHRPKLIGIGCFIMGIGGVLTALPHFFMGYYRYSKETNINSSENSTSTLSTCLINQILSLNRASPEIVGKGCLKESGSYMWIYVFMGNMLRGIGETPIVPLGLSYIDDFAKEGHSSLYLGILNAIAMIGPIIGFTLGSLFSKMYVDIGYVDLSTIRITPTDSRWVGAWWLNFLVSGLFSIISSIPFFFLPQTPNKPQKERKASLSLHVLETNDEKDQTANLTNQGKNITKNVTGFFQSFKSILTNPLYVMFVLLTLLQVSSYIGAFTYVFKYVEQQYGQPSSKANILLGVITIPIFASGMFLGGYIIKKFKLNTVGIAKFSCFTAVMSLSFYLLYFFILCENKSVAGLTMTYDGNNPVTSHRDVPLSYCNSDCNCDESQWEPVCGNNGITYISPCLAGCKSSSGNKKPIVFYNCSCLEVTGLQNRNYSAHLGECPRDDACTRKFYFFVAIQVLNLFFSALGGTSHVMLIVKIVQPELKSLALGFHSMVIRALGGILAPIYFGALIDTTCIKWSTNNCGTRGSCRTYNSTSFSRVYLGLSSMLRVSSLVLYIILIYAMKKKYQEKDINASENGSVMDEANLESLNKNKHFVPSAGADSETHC

OAT1 = target: T2, OAT1 (Homo sapiens, UniProt Q4U2R8); test: as above; assay type: in vitro ADME
T2 sequence (Q4U2R8 1-563): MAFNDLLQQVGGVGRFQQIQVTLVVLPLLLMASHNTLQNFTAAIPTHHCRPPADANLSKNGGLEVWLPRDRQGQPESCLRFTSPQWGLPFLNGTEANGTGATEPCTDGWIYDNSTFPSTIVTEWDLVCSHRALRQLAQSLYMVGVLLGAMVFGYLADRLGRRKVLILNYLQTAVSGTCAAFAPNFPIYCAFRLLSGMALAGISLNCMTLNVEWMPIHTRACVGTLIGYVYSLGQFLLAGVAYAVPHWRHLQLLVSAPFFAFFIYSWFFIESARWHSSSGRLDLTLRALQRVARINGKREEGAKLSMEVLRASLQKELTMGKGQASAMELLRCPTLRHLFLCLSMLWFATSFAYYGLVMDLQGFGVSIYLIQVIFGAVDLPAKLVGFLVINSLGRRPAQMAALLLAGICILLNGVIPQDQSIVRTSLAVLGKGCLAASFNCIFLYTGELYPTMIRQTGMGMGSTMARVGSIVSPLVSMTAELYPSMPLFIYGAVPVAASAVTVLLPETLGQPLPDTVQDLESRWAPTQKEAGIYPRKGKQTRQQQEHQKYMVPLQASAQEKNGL

MATE2-K = MATE2-K (Homo sapiens, UniProt Q86VL8); test: as above; assay type: in vitro ADME
P-glycoprotein (P-gp) = P-glycoprotein (P-gp) (Homo sapiens, UniProt P08183); test: as above; assay type: in vitro ADME
glycosylated hemoglobin = test: Multidose exploratory clinical study of T2DM patients (CTR20182505): glycosylated hemoglobin; assay type: in vivo, human; details: after six doses of oral administration
in vitro = details: human
Method: (§2) Reactions were stopped by removing the plates from the incubator and mixing the incubation solution with 600 μL of ice-cold stop solution (acetonitrile) at the corresponding sampling time points.

[4] = Stability in human liver microsomes incubation system (unpublished); details: 1 μM, 0.5 mg/mL human liver microsomes
Method: as §2

Sequence of MATE2-K (Q86VL8 1-566 isoform Q86VL8-3, species assumed): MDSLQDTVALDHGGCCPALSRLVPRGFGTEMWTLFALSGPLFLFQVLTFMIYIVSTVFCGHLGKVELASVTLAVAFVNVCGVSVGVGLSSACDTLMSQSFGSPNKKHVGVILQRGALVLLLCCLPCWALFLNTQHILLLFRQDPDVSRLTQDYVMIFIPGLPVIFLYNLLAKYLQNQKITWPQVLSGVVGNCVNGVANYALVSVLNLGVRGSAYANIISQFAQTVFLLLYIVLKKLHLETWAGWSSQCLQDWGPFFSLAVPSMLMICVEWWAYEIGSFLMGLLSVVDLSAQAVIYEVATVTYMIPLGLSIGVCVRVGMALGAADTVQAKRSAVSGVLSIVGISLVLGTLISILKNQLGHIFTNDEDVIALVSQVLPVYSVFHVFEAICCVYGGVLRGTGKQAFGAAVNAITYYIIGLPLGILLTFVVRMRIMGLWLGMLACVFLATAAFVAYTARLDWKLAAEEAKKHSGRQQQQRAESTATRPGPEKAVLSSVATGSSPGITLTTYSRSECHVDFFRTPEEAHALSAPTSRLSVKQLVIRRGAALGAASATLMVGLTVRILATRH
Sequence of P-glycoprotein (P-gp) (P08183 whole entry): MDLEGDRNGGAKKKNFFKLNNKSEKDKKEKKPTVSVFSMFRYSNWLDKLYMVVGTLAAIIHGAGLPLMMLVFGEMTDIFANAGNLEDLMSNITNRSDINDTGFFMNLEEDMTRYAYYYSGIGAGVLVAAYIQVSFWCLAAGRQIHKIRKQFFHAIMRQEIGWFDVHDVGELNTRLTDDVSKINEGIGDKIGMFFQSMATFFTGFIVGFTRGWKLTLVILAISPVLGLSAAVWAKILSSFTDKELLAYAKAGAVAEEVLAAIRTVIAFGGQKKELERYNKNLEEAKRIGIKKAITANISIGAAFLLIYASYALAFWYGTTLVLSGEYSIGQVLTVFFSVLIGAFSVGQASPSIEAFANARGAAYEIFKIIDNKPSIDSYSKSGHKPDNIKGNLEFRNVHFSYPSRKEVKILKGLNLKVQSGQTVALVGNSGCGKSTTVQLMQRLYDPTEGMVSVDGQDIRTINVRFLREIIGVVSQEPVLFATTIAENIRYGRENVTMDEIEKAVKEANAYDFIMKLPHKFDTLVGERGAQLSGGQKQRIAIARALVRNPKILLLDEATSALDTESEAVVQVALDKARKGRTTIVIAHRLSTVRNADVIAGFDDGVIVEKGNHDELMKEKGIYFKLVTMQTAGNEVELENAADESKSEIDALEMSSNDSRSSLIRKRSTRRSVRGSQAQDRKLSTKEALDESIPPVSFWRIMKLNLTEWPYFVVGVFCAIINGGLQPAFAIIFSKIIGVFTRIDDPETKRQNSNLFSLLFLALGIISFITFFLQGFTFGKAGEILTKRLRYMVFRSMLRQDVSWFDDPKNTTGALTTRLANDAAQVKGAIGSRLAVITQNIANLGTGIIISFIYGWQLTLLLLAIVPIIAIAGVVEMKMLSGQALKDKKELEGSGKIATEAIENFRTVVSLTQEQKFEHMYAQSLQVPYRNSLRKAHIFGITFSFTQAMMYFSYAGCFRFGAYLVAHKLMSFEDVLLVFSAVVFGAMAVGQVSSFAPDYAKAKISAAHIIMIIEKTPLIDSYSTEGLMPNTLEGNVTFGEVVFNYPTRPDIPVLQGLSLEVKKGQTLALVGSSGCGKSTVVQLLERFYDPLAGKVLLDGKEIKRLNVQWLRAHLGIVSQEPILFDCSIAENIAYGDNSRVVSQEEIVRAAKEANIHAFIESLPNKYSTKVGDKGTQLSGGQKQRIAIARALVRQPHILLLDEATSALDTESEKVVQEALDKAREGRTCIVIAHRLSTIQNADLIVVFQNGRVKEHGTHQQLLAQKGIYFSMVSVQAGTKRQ
From the text for physchem: Based on the results of the two-stage biorelevant dissolution test (see Fig. 4 in 3.2 section), the precipitation parameters in the DLM were not assessed, and the critical supersaturation ratio (CSC) and precipitation rate constant (PRC) were set to the minimum values, respectively.
Furthermore, solubility parameters, representing the influence of pH and bile salts on the solubility, were estimated by Eq. (3) according to the experimental results.
Accordingly, it was unnecessary to evaluate the precipitation parameters for the development of DLM, which (CSC and PCR) were set to minimum values in DLM. Most importantly, the dissolution parameters, such as heff and DLMs, were estimated by Eq. (4) from the dissolution profile in 300 mL FaSSGF medium. Meanwhile, the disintegration lag time of the formulation was evaluated with the method of Weibull function, so that the dissolution profile could be captured by Eq. (4).

CS(=O)(=O)n1cc2c(n1)CN([C@@H]1C[C@H](N)[C@@H](c3cc(F)ccc3F)O[C@@H]1C(F)(F)F)C2 [HSK7653]
Papp A→B at 2 h, 1 μM ([1]; 1 μM, 2 h, 37 °C): 25.3 ×10⁻⁶ cm/s | Papp A→B at 2 h, 5 μM ([1]; 5 μM, 2 h, 37 °C): 29.3 ×10⁻⁶ cm/s | Papp A→B at 2 h, 20 μM ([1]; 20 μM, 2 h, 37 °C): 40.3 ×10⁻⁶ cm/s | Papp at 2 h ([1]; average value of Papp at different incubation concentrations, apical pH: basolateral pH 7.4: 7.4, read-out: Caco-2 permeability, model input): 31.6 ×10⁻⁶ cm/s | Permeability classification (Caco-2 monolayer cells): high-permeability compound | Biliary CLint (CLint_bile) [2]: 0.025 μL/min/10^6 | bioavailability [3]: 94.5% | Transporter substrate assessment (OATP1B1): not a common transport substrate | Transporter substrate assessment (OAT1): not a common transport substrate | Transporter substrate assessment (MATE2-K): not a common transport substrate | Transporter substrate assessment (P-glycoprotein (P-gp)): not a common transport substrate | Glycosylated hemoglobin change (glycosylated hemoglobin): significantly reduced | half-life at 0.05 μM (in vitro; primary human plated hepatocytes): 12.2 days | hepatocyte CLint at 0.05 μM (in vitro; primary plated hepatocytes (cryopreserved, 10 donors mixed)): 0.056 µL/min/1e6 cells | solubility (physchem): 7 µg/mL (≈ 15 µM) | Metabolic stability in human liver microsomes [4]: very stable
